Laboratory results reported in patent US20110105397A1, “METHOD FOR TREATING HEART FAILURE WITH STRESSCOPIN-LIKE PEPTIDES” (priority 2009, published 2011).
Where two headings read alike, the source gives them in different places.

Key:
in vivo = conditions: mongrel, dog, iv, [SEQ ID NO: 1] plasma concentration
Experimental: (§1) A sandwich immunoassay was developed using an affinity purified goat polyclonal antibody, specific to h-SCP that was pre-coated onto a microplate with integrated electrodes. h-SCP molecules present in the sample will bind to the capture polyclonal antibody coated on the plate. After washing away any unbound substances, a sulfo-tagged mouse monoclonal anti-h-SCP antibody was added. This conjugated antibody will bind to the h-SCP molecules captured on the microplate and the quantity of analyte was determined by electrochemiluminescence. The amount of signal generated is directly proportional to the h-SCP concentration in the sample or standard. The standard curve range is 3.125-1600 pg/mL with a quantifiable range from 10-800 pg/mL. A sample volume of 25 μL (in duplicate) is required for this assay. This immunoassay is specific for human and dog stresscopin and human urocortin III (h-UCN3). […] After completion of the analysis, based on a comparison of reference standards between the ELISA and HPLC method, a correction factor of 1.57 was applied to all bioanalytical data.
The effects of h-SCP (SEQ ID NO:1) on cardiovascular function were also assessed in anaesthetized dogs with advanced, irreversible heart failure of ischemic etiology (Sabbah et al., 1991, Am. J. Physiol., vol. 260, pp. H1379-H1384; Sabbah et al., 1994, Circulation, vol. 98, pp. 2852-2859; Chandler et al., 2002, Circ. Res., vol. 91, pp. 278-280). Progressive, advanced heart failure was produced in mongrel dogs by multiple sequential intracoronary microembolization with polystyrene latex microspheres. Dose infusions of 2.2, 4.3, and 7.3 ng/kg/min were administered intravenously over 60 minutes just following or just prior to hemodynamic, angiographic, echocardiographic, and Doppler measurements using conventional hemodynamic, angiographic, echocardiographic, and radiographic methods. The h-SCP polypeptide (SEQ ID NO:1) produced dose- (infusion-) dependent increases in LVEF and SV and decreases in left ventricular end diastolic pressure (LVEDP), left ventricular pressure during isovolumic relaxation (LV-dP/dt), systemic vascular resistance (SVR), and left ventricular end-systolic volume (LVESV) that correlated with plasma concentration. No significant change in heart rate, peak systolic aortic blood pressure, LV+dP/dt, mean pulmonary artery pressure, mean pulmonary artery wedge pressure, right atrial pressure, or myocardial oxygen consumption were recorded following any of the 1 hour intravenous infusions (Table 18 and FIGS. 12 A & B). The improvement in LV systolic and diastolic function was not associated with the development of de novo ventricular arrhythmias.
In order to determine the threshold effective dose-infusion in dogs with advanced heart failure, a further study was performed at lower dose infusions. In addition, the opportunity was taken to explore whether the increase in LVEF produced by higher dose-infusions of 4.3 ng/kg/min would remain stable over a longer infusion period, i.e. 120 minutes.

[1] = Nonclinical pharmacokinetics in rats; set-up: species or system rat; conditions: in vivo
Experimental: as §1
The nonclinical pharmacokinetics of h-SCP (SEQ ID NO:1) and pegylated stresscopin-like peptides were studied in rats, dogs, and cynomolgus monkeys (cyno). Nonclinical pharmacokinetic studies focused on characterization of IV infusion at pharmacologically relevant dose levels, supplemented with IV and SC bolus and toxicokinetic analysis.

[2] = female, rat IV infusion 3 hours, F, 83.3 ng/kg/min
[3] = female, rat IV infusion 3 hours, F, 167 ng/kg/min
[4] = female, rat IV infusion 3 hours, F, 333 ng/kg/min
[5] = male, 3000 ng/kg, rat IV bolus, M, 3,000 ng/kg
[6] = male, 10000 ng/kg, rat IV bolus, M, 10,000 ng/kg
[7] = male, 300000 ng/kg, rat IV bolus, M, 300,000 ng/kg
[8] = male, rat IV infusion 3 hours, M, 83.3 ng/kg/min
[9] = male, rat IV infusion 3 hours, M, 167 ng/kg/min
[10] = male, rat IV infusion 3 hours, M, 333 ng/kg/min

## H-TKFTLSLDVPTNIMNLLFNIAKAKNLRAQAAANAHLMAQI-NH2 [SEQ ID NO: 1, TKFTLSLDVPTNIMNLLFNIAKAKNLRAQAAANAHLMAQI-NH2]
In vivo; 0.22 ng/kg/min
  level at 1 h: 0.0412 ± 0.0149 ng/mL
  level at time molar at 1 h: 0.0094 ± 0.0034 nM
In vivo; 0.43 ng/kg/min
  level at 1 h: 0.0372 ± 0.0139 ng/mL
  level at time molar at 1 h: 0.0085 ± 0.0032 nM
In vivo; 2.2 ng/kg/min
  level at 1 h: 0.141 ± 0.0182 ng/mL
  level at time molar at 1 h: 0.0324 ± 0.0042 nM
In vivo; 4.3 ng/kg/min
  level at 1 h: 0.178 ± 0.0211 ng/mL
  level at 2 h: 0.249 ± 0.0479 ng/mL
  level at time molar at 1 h: 0.0408 ± 0.0048 nM
  level at time molar at 2 h: 0.057 ± 0.011 nM
In vivo; 7.3 ng/kg/min
  level at 1 h: 0.279 ± 0.0296 ng/mL
  level at time molar at 1 h: 0.0639 ± 0.0068 nM
[1]; [2]
  AUC(0-inf): 1.47 ng·h/mL
  Cmax: 0.906 ng/mL
[1]; female, rat IV infusion 3 hours, F, 83.3 ng/kg/min, read-out: CL
  clearance: 107 mL/min/kg
[1]; [3]
  AUC(0-inf): 1.15 ng·h/mL
  Cmax: 0.683 ng/mL
[1]; female, rat IV infusion 3 hours, F, 167 ng/kg/min, read-out: CL
  clearance: 271 mL/min/kg
[1]; [4]
  AUC(0-inf): 4.45 ng·h/mL
  Cmax: 2.67 ng/mL
[1]; female, rat IV infusion 3 hours, F, 333 ng/kg/min, read-out: CL
  clearance: 130 mL/min/kg
[1]; female, rat, iv, t1/2 alpha
  half-life: 1.9 min
[1]; female, rat, iv, t1/2 terminal
  half-life: 58.2 min
[1]; [5]
  AUC(0-inf): 0.522 ng·h/mL
  Cmax: 4.8 ng/mL
[1]; male, 3000 ng/kg, rat IV bolus, M, 3,000 ng/kg, read-out: CL
  clearance: 109 mL/min/kg
[1]; [6]
  AUC(0-inf): 1.5 ng·h/mL
  Cmax: 13.6 ng/mL
[1]; male, 10000 ng/kg, rat IV bolus, M, 10,000 ng/kg, read-out: CL
  clearance: 116 mL/min/kg
[1]; male, 50000 ng/kg, rat IV bolus, M, 50,000 ng/kg
  Cmax: 224 ng/mL
[1]; male, 50000 ng/kg, rat IV bolus, M, 50,000 ng/kg, read-out: CL
  clearance: 41.8 mL/min/kg
[1]; [7]
  AUC(0-inf): 99.7 ng·h/mL
  Cmax: 780 ng/mL
[1]; male, 300000 ng/kg, rat IV bolus, M, 300,000 ng/kg, read-out: CL
  clearance: 50.1 mL/min/kg
[1]; [8]
  AUC(0-inf): 1.24 ng·h/mL
  Cmax: 0.752 ng/mL
[1]; male, rat IV infusion 3 hours, M, 83.3 ng/kg/min, read-out: CL
  clearance: 116 mL/min/kg
[1]; [9]
  AUC(0-inf): 2.43 ng·h/mL
  Cmax: 1.53 ng/mL
[1]; male, rat IV infusion 3 hours, M, 167 ng/kg/min, read-out: CL
  clearance: 109 mL/min/kg
[1]; [10]
  AUC(0-inf): 4.85 ng·h/mL
  Cmax: 2.86 ng/mL
[1]; male, rat IV infusion 3 hours, M, 333 ng/kg/min, read-out: CL
  clearance: 118 mL/min/kg
[1]; rat, alpha-phase half-life (t1/2 alpha)
  half-life: < 5 min
[1]; rat, iv
  time to apparent steady-state plasma concentration after initiation of infusion: ≤ 2 h
[1]; rat, rats, IV bolus, read-out: clearance values
  clearance: 42 to 116 mL/min/kg
